Experimental data reported in PMC8448514, “Exploratory comparisons between different anti-mitotics in clinically-used drug combination in triple negative breast cancer” (Oncotarget, 2021).
Values belong to the compound of their own block, whether it stands above or below them.

Legend:
[1] = tested on: breast cancer induced by MDA-MB-231; assay: Tumor volume monitoring in xenograft model; type: in vivo, mice; conditions: used in combination with doxorubicin 10 mg/Kg and cyclophosphamide 100 mg/Kg; 4bt 80 mg/Kg, paclitaxel 10 mg/Kg
Protocol: Mice were anesthetized with ketamine (80 mg/kg of body weight) and xylazine (20 mg/kg of body weight) solution. 2 × 10^6 MDA-MB-231 cells in PBS/20% type I Collagen (100 μL) were inoculated in the fourth right mammary fat pad. After tumor establishment, about 5 weeks after inoculation, mice were randomized into experimental groups (n = 5 per group), and treatment started.

Balb-c/nude mice = assay: Behavioral observation (motor capacity, peripheral neuropathy); type: in vivo; conditions: a few minutes after administration; paclitaxel 10 or 20 mg/Kg, 4bt 80 mg/Kg; monotherapy and drug combination
Protocol: (§2) Animals of all experimental groups were monitored with regards to their weight, behavior and clinical aspects. Animals body weight were assessed prior the beginning of treatment and twice a week throughout the experiment period as an important indicator of toxicity.

tumor cell apoptosis = assay: TUNEL assay for apoptosis in tumor sections; type: in vivo, mice; conditions: paclitaxel 20 mg/Kg; AC-T; AC-4bt; vs vehicle
Protocol: The level of apoptosis in tumor sections was determined by TUNEL assay. TUNEL staining was performed on paraffin-embedded sections using Click-iT™ TUNEL Colorimetric IHC Detection Kit (Invitrogen, Carlsbad – USA) according to the manufacturer’s protocol. Briefly, the sections were dewaxed, rehydrated, and immersed in 4% paraformaldehyde fixative solution for 15 minutes. They were then washed and incubated with proteinase K for 20 min at room temperature. The slides were washed with PBS for 5 minutes, and immersed in 4% paraformaldehyde fixative solution again for 5 minutes at room temperature. Slides were then washed with PBS (twice, for 5 minutes) and rinsed with deionized water. Samples were incubated in TdT Reaction Buffer for 10 minutes at 37°C. The TdT reaction buffer was gently removed using paper towels and slides were incubated with TdT Reaction Mixture for another hour at 37°C in a humidified chamber. After being rinsed with PBS, slides were immersed in 2X SSC for 15 minutes, in order to fully quench TdT reaction. Slides were washed with 1X Click-iT™ TUNEL Colorimetric Wash solution and incubated with the Click-iT™ TUNEL Colorimetric Reaction cocktail for 30 minutes at 37°C, protected from light. […]
After acquisition, images were submitted to a semi-quantitative analysis using the IHC Profiler plug-in (National Institute of Health) from ImageJ software. […]

[2] = tested on: intratumoral necrotic area of MDA-MB-231 tumor; assay: Histopathological analysis of tumor sections (H&E); type: in vivo, mice; conditions: monotherapy; 4bt, 4bc 80 mg/Kg, paclitaxel 20 mg/Kg; vs vehicle
Protocol: Tumors and lungs were fixed in 10% buffered formalin and processed for paraffin embedding. Processed material was sectioned at 5 μm, and sections were stained with hematoxylin & eosin (HE) for analysis under the light microscope Axiovert (Zeiss, Germany). Tumor and lung sections were analyzed for general histopathological assessment.

[3] = tested on: Balb-c nude mice bearing breast tumor; assay: Biochemical analysis of blood (liver and kidney toxicity); type: in vivo; conditions: 20 mg/kg i.p., monotherapy
[4] = tested on: Balb-c nude mice bearing breast tumor; assay: Red blood cell analysis (complete blood count); type: in vivo; conditions: 20 mg/kg i.p., monotherapy; mean ± SEM
[5] = Body weight and clinical monitoring
Protocol: as §2
All treatments were administered intraperitoneally (i.p) (Figure 7).
Animal weight was also monitored with help of a digital scale twice a week.

KIF11 = assay: Intratumoral KIF11 expression by immunofluorescence; type: in vivo, mice; conditions: 4bt, 4bc 80 mg/Kg; paclitaxel 20 mg/Kg; AC-T; AC-4bt; vs vehicle
Protocol: In order to evaluate the role of KIF-11 inhibitors in some key features for tumor progression and development, we analyzed tumor sections for the levels of KIF-11, ALDH1-A1 and Ki67 expression by immunofluorescence (IF) or immunohistochemistry. Immunostaining was performed on 5 μm sections of formalin-fixed paraffin-embedded (FFPE) tissue. Tissue slides were baked, deparaffinized in xylene and passed through graded alcohols for rehydration. Antigen retrieval was achieved submitting samples to a 10 mM Trisodium Citrate solution, pH 6.0 in a steam pressure cooker at 100°C for 10 minutes. Slides were then left immersed in the Trisodium Citrate solution at room temperature for 20 minutes before being washed with PBS/0.025% Triton. The area around each section was delimited by a hydrophobic liquid blocker (PAP-Pen) in order to assure homogeneous distribution of reagents and antibodies.
(§1) Slides were then washed in PBS/0.025% Triton, incubated at room temperature in the dark with (1:500) Alexa Fluor 488-Anti-rabbit secondary antibody, for KIF-11 and Ki67, or (1:250) Goat anti-rabbit HRP, for ALDH1-A1 for 1 hour, washed three times with PBS. […] Slides for ALDH1-A1 analysis were counterstained with hematoxylin and analyzed under light microscope Axiovert (Zeiss, Germany).

[6] = tested on: Balb-c nude mice bearing breast tumor; assay: White blood cell and platelet analysis (complete blood count); type: in vivo; conditions: 20 mg/kg i.p., monotherapy, mean ± SEM
ALDH1-A1 = ALDH1-A1 immunohistochemistry of tumor sections; type: in vivo, mice; conditions: 4bt, 4bc 80 mg/Kg, paclitaxel 20 mg/Kg; vs vehicle
Text: After acquisition, images were submitted to a semi-quantitative analysis using the IHC Profiler plug-in (National Institute of Health) from ImageJ software. Images were submitted to a deconvolution process, and histogram profiles, corresponding to pixel intensity as well as a stain-positivity percentage value derived from a scoring system based on optical density, were automatically generated. Areas rated as highly positive or positive were considered for analysis.
In order to evaluate the role of KIF-11 inhibitors in some key features for tumor progression and development, we analyzed tumor sections for the levels of KIF-11, ALDH1-A1 and Ki67 expression by immunofluorescence (IF) or immunohistochemistry. Immunostaining was performed on 5 μm sections of formalin-fixed paraffin-embedded (FFPE) tissue. […]
as §1
For ALDH1-A1 quantification of positive areas, IHC Profiler plug-in was used as previously described for TUNEL analysis.

breast cancer = conditions: cited from earlier work

- Motor capacity / behavioral changes (Balb-c/nude mice): reduced motor capacity
- Hematocrit [4]: 42.56 ± 0.62 %
- Hemoglobin [4]: 12.80 ± 0.14 g/dL
- MCH (mean corpuscular hemoglobin) [4]: 15.73 ± 0.05 pg
- MCHC (mean corpuscular hemoglobin concentration) [4]: 30.07 ± 0.12 g/dL
- MCV (mean corpuscular volume) [4]: 52.23 ± 0.42 fL
- RDW (red cell distribution width) [4]: 22.85 ± 0.98 %
- Red cells [4]: 8.15 ± 0.08 10^6/mm^3
- Basophils (%) [6]: 2 ± 1.25%
- Basophils (Abs) [6]: 42.79 ± 22.69
- Eosinophils (%) [6]: 0.00%
- Eosinophils (Abs) [6]: 0.00
- Lymphocytes (%) [6]: 78.63 ± 2.36%
- Lymphocytes (Abs) [6]: 1682.24 ± 602.57
- MPV (mean platelet volume) [6]: 7.07 ± 0.12 fL
- Monocytes (%) [6]: 4.79 ± 3.74%
- Monocytes (Abs) [6]: 102.51 ± 65.75
- Neutrophils (%) [6]: 12.07 ± 5.10%
- Neutrophils (Abs) [6]: 258.30 ± 103.76
- Platelets [6]: 1070.01 ± 37.28 10^3/mm^3
- WBC (white blood cells) [6]: 2139.39 ± 684.75
- WBC (white blood cells) ([6]; listed as paclitaxel): 2139.39 ± 684.75
SMILES: CC(=O)O[C@H]1C(=O)[C@@]2(C)[C@H]([C@H](OC(=O)c3ccccc3)[C@]3(O)C[C@H](OC(=O)[C@H](O)[C@@H](NC(=O)c4ccccc4)c4ccccc4)C(C)=C1C3(C)C)[C@]1(OC(C)=O)CO[C@@H]1C[C@@H]2O [Paclitaxel, paclitaxel]
- Tumor volume [1]: significantly decreasing the tumor volume
- TUNEL positive area staining (apoptotic activity) (tumor cell apoptosis): substantially increase positive area staining
- Intratumoral necrotic area [2]: reduction in the size of necrotic area
- Creatinine [3]: < 0,2 mg/dL
- ALP (alkaline phosphatase) ([3]; mean ± SEM): 86.50 ± 10.5 U/L
- ALT (alanine transaminase) ([3]; mean ± SEM): 21.50 ± 1.50 UI/L
- AST (aspartate aminotransferase) ([3]; mean ± SEM): 98.50 ± 21.50 UI/L
- GGT (gamma-glutamyl transferase) ([3]; mean ± SEM): < 1 U/L
- LDH (lactate dehydrogenase) ([3]; mean ± SEM): 464.50 ± 50.5 U/L
- Urea ([3]; mean ± SEM): 59.00 ± 2.00 mg/dL
- Body weight change ([5]; cycles of paclitaxel 10 mg/Kg or 4bt 80 mg/Kg after AC): did not cause any further reduction
- Body weight change ([5]; monotherapy, 4bt and 4bc 80 mg/Kg, PTX 20 mg/Kg, 1 week after the beginning of treatment, no significant change afterwards): weight reduction
- Intratumoral KIF11 expression (KIF11): didn’t cause any change on KIF11 levels
- ALDH1-A1 expression change (ALDH1-A1): didn’t cause significant changes in ALDH1-A1 expression

SMILES: Cc1ccc(C(=O)N(CCCN)[C@@H](c2nc3cc(Cl)ccc3c(=O)n2Cc2ccccc2)C(C)C)cc1 [Ispinesib]
- Neurotoxicity / tolerability (breast cancer; clinical): no indication of neurotoxicity
- Antitumor activity in phase I trial (breast cancer; phase I trial in breast cancer): relevant antitumor activity and stabilization of the disease
